Patent publication US20230331719A1, “Pyrazolopyridine Compounds and Methods of Inhibiting IRE1 Using Same” (OPTIKIRA, LLC, priority 2020, published 2023)

Columns and labels:
IRE1α kinase = IRE1α kinase (Homo sapiens (Human), UniProt O75460); test: Inhibition of kinase activity of IRE1α (ADP-Glo); format: biochemical; conditions: 5 nM IRE1α kinase, 100 µM ATP, 4 hours at room temperature
Protocol: The kinase reactions were performed in 384 well white ProxiPlate-384 Plus plates (PERKIN Elmer 6008280) using 25 mM MOPS assay buffer with 1 mM dithiothreitol, 25 mM MgCl2, 12.5 mM β-glycerophosphate, 5 mM EGTA, and 50 µg/mL BSA. Test compounds were prepared on the day of assay and dispensed using D300 digital dispenser as a 10-point ½ log dilution series in duplicate, normalized to a final DMSO concentration of 3%. Test compounds were pre-incubated for 30 min at room temperature with 10 nM IRE1α kinase (E31-11G from Signal Chem) in 2.5 µL of assay buffer and the reaction started by addition of 2.5 µL of ATP in assay buffer, to give a final ATP concentration of 100 µm and 5 nM IRE1α kinase. After 4 hours incubation at room temperature the reactions were stopped and the kinase activity determined using the ADP-Glo™ reagent from Promega, according to the manufacturer’s instructions. Luminescence was measured on a luminometer (EnVision, PerkinElmer) and IC50 values calculated by fitting a sigmoidal curve to percent inhibition of control versus Log10 of compound concentration.

XBP1 = test: Cellular XBP1 splicing assay (NanoLuc luciferase reporter); format: cell-based; conditions: Homo sapiens; ARPE-19 cells stably expressing XBP1-nano-luciferase; thapsigargin 150 nM, 4 hour incubation
Protocol: ARPE-19 cells stably expressing XBP1 (a.a. 1-376) with nano-luciferase gene sequence linked so it is in frame when XBP1 is spliced, were cultured in F12 media, 10 % FBS, 0.044% sodium bicarbonate, 150 µg/ml hygromycin B and seeded for assays at 5,000 cells in 384 well plates in culture media without hygromycin B and incubated at 37° C./5% CO2. After overnight incubation test compounds were added to the cell plate in a 10-point ½ log dilution series in duplicate (final DMSO concentration 0.117 %). After further incubation of 30 minutes thapsigargin was added (final concentration 150 nM) and then another 4 hour incubation. A NanoLuc luciferase assay (Promega) was used according to the manufacturer’s instructions to detect the luciferase and luminescence measured on a luminometer (EnVision, PerkinElmer). IC50 values calculated by fitting a sigmoidal curve to percent inhibition of control of compound concentration.

IRE1α RNase = IRE1α RNase (Homo sapiens (Human), UniProt O75460); test: Inhibition of RNase activity of IRE1α; format: biochemical; conditions: 0.325 nM enzyme, 100 nM substrate, 20 minutes at room temperature
Chain of IRE1α RNase (O75460 468-977): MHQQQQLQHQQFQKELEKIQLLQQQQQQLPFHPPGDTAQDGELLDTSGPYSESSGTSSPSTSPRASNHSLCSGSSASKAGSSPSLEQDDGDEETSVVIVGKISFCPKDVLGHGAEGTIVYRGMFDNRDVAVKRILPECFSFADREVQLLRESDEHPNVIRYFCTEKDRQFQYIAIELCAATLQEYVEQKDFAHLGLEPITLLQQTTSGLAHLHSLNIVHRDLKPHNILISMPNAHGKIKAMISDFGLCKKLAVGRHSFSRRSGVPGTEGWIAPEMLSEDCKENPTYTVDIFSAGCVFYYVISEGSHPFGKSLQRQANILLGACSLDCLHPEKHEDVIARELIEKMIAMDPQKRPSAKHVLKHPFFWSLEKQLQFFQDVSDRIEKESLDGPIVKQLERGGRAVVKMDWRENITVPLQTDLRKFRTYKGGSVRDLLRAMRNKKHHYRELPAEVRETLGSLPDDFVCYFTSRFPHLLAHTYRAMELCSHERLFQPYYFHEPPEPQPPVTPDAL
Protocol: The RNase reactions were performed in 384 well black ProxiPlate-384 Plus plates (PERKIN Elmer) using 50 mM Tris assay buffer with 0.5 mM MgCl2, 10 mM KCl, 0.03 % Tween, 2 mM DTT and 1% DMSO. Test compounds were prepared on the day of assay and dispensed using D300 digital dispenser as a 10-point ½ log dilution series in duplicate, normalized to a final DMSO concentration of […]. Test compounds were pre-incubated for 30 min at room temperature with IRE1α kinase (E31-11G from Signal Chem) in 2.5 µL of assay buffer. Then 2.5 µl of assay buffer containing substrate (5′ Alexa Fluor 647 - rCrArUrGrUrC rCrGrCrArGrCrGrCrArUrG - Iowa Black RQ quencher 3′) (SEQ ID NO:1) added, giving a final concentration of enzyme of 0.325 nM and of substrate of 100 nM. After 20 minutes incubation at room temperature the reactions were stopped by added 5 µL of 5 M urea, incubated at room temperature for 10 minutes and fluorescence measured on a plate reader (EnVision, PerkinElmer). IC50 values calculated by fitting a sigmoidal curve to percent inhibition of control versus compound concentration.

Chain of IRE1α kinase (O75460 468-977): as above

Compound	IC50 (IRE1α kinase) [nM]	IC50 (XBP1) [nM]	IC50 (IRE1α RNase) [nM]
COC(C)(C)CN[C@H]1CC[C@H](c2cnc(N)c3c(-c4cc(F)c(NS(=O)(=O)c5ccccc5F)cc4F)nn(C(C)C)c32)CC1 [Compound A13, N-(4-(4-amino-1-isopropyl-7-((1r,4r)-4-((2-methoxy-2-methylpropyl)amino)cyclohexyl)-1H-pyrazolo[4,3-c]pyridin-3-yl)-2,5-difluorophenyl)-2-fluorobenzenesulfonamide]	3.6	17	15.5
CCOc1ccc(Cl)c(S(=O)(=O)Nc2cc(F)c(-c3nn(C(C)C)c4c3c(N)ncc4[C@H]3CC[C@H](N4CCOCC4)CC3)cc2F)c1 [Compound A17, N-(4-(4-amino-1-isopropyl-7-((1r,4r)-4-morpholinocyclohexyl)-1H-pyrazolo[4,3-c]pyridin-3-yl)-2,5-difluorophenyl)-2-chloro-5-ethoxybenzenesulfonamide]	2.1	10.6	4.8
CC(C)n1nc(-c2cc(F)c(NS(=O)(=O)c3cc(Cl)ccc3F)cc2F)c2c(N)ncc([C@H]3CC[C@H](N4CCOCC4)CC3)c21 [Compound A20, N-(4-(4-amino-1-isopropyl-7-((1r,4r)-4-morpholinocyclohexyl)-1H-pyrazolo[4,3-c]pyridin-3-yl)-2,5-difluorophenyl)-5-chloro-2-fluorobenzenesulfonamide]	2.3	10.3	3.5

The remaining lines, values ahead:

IC50 (IRE1α kinase) [nM]	IC50 (XBP1) [nM]	IC50 (IRE1α RNase) [nM]	Compound
2.1	7.7	3.4	Cc1ccc(F)c(S(=O)(=O)Nc2cc(F)c(-c3nn(C(C)C)c4c3c(N)ncc4[C@H]3CC[C@H](N4CCOCC4)CC3)cc2F)c1 [Compound A12, N-(4-(4-amino-1-isopropyl-7-((1r,4r)-4-morpholinocyclohexyl)-1H-pyrazolo[4,3-c]pyridin-3-yl)-2,5-difluorophenyl)-2-fluoro-5-methylbenzenesulfonamide]
1.9	6.8	6	[2H]C([2H])([2H])Oc1ccc(F)c(S(=O)(=O)Nc2cc(F)c(-c3nn(C(C)C)c4c3c(N)ncc4[C@H]3CC[C@H](N4CCOCC4)CC3)cc2F)c1 [Compound A18, N-(4-(4-amino-1-isopropyl-7-((1r,4r)-4-morpholinocyclohexyl)-1H-pyrazolo[4,3-c]pyridin-3-yl)-2,5-difluorophenyl)-2-fluoro-5-(methoxy-d3)benzenesulfonamide]
